Data published in patent US8846880B2, “Synthetic analogues of phosphatidyl-myo-inositol mannosides with an inhibitory activity of the inflammatory response” (Centre National de la Recherche Scientifique—CNRS—, priority 2008, dated 2014).

Columns and labels:
[1] = test system: IL-12p40; experiment: IL-12p40 secretion by LPS-stimulated primary macrophages (ELISA); format: cell-based, mouse
Procedure: (§1) Murine bone marrow cells were obtained from femurs of wild-type mouse lines. The cells obtained were cultured (10^6/ml) for 7 days in DMEM medium (Dulbecco's modified Eagle's medium) supplemented with 20% of horse serum and 30% of L929 cell-conditioned medium. Three days after renewal of the medium, the cell preparation comprises a homogeneous population of macrophages.
(§2) The macrophages derived from the bone marrow of wild-type mice were cultured on 96-well culture plates in the proportion of 10^5 cells per well, and were then stimulated with LPS (100 ng/ml, Escherichia. coli, serotype O111:B4, Sigma) with or without PIM analog (1-10 μg/ml). All the freeze-dried PIM analog preparations used are solubilized in DMSO and added to the cultures at a noncytotoxic maximum final concentration of 1%.
(§3) After stimulation for 24 hours, the culture supernatants were collected and analyzed for their content of TNF-α, IL-6, IL-12p40 and KC cytokines by ELISA (Duoset, R&D) and for their nitrite content by means of the Griess reaction.
(§4) The macrophages derived from the bone marrow of wild-type mice were cultured on 96-well culture plates in a proportion of 10^5 cells per well, and then stimulated with LPS (100 ng/ml, Escherichia coli, serotype […], Sigma) with isoPIM1C16C18 (SFPIM219) (1-10 μg/ml) or a DMSO control. The preparation of freeze-dried SFPIM219 which is used is solubilized in DMSO and added to the cultures at a noncytotoxic maximum final concentration of 1%.
(§5) After stimulation for 24 hours, the culture supernatents were collected and analyzed for their content of cytokines TNF-α or IL-12p40 by ELISA (R&D Duoset, Minneapolis, Mo.). The results correspond to the mean±SD of n=2 mice per genotype.
(§6) The macrophages derived from the bone marrow of wild-type mice were cultured on 96-well culture plates in a proportion of 10^5 cells per well, and then stimulated with LPS (100 ng/ml, Escherichia coli, serotype O111:B4, Sigma) with PIM1 (SFPIM145), isoPIM1C16C18 (SFPIM219) or the compounds PIM-2-mimNCOCF3 (SFPIM324 t2) and PIM-2-mimNH(SFPIM324 t8) (titrated at 1, 3, 10, 30 μg/ml) or DMSO controls. The freeze-dried SFPIM145, SFPIM219, SFPIM324 t2 and SFPIM324 t8 preparations that were used are solubilized in DMSO and added to the cultures at a noncytotoxic maximum final concentration of 1%.

[2] = test system: TNF-α; experiment: TNF-α secretion by LPS-stimulated bone-marrow-derived primary macrophages (ELISA); format: cell-based, mouse; details: LPS 100 ng/ml, 24 hours
Procedure: as §1, §2, §3, §4, §5, §6

[3] = test system: macrophages; experiment: MTT cytotoxicity / cell viability assay on the same macrophages; format: cell-based, mouse
[4] = test system: KC; experiment: KC in bronchoalveolar lavage fluid after intranasal LPS (ELISA); format: in vivo; details: 24 hours after intranasal 1 μg LPS, coadministration 50 μg/mouse (FIG. 10)
Procedure: (§7) C57BL/6 mice received the vehicle alone (saline with 1.25% DMSO) or LPS (1 μg per mouse) from Escherichia coli (serotype […]; Sigma, St Louis, Mo., USA) in the absence or in the presence of PIM1 (SFPIM135) or of isoPIM1-2C16 (SFPIM91) (50 μg/mouse), applied by nasal instillation in a volume of 40 μl under light anesthesia with ketamine-xylazine.
(§8) The BAL fluid is collected by canulating the trachea and washing the lungs four times with 0.5 ml of cold PBS. After centrifugation at 400×g for 10 min at 4° C., the supernatant from the first lavage is stored at −70° C. for the cytokine analysis. Pools of cell pellets are counted with Trypan blue (Sigma) in a hemocytometer cell. For differential counting, the cells are stained with Diff-Quik Staining (Merz & Dade AG., Dudingen, Switzerland). Two times one hundred cells are counted.
(§9) The TNF and KC concentrations were evaluated by enzyme-linked immunosorbent assay (ELISA) in accordance with the instructions of the manufacturer (R&D Duoset, Minneapolis, Mo.).
Neutrophil recruitment depends on various factors, including chemokine KC, even though it is not critically dependent on TNF [23]. In FIG. 10, the treated mice are sacrificed 24 hours after the intranasal application of 1 μg of LPS and the bronchoalveolar fluid is analyzed in order to determine the chemokine KC content. […]

[5] = test system: KC; experiment: Chemokine KC production by LPS-stimulated macrophages (ELISA); format: cell-based, mouse; details: 10 μg/ml (FIG. 7)
Procedure: as §1, §2, §3

[6] = test system: IL-6; experiment: IL-6 expression by primary macrophages stimulated with LPS with or without IFNγ (ELISA); format: cell-based, mouse; details: LPS in the presence or absence of interferon-γ, 10 μg/ml (FIG. 5)
Procedure: as §1, §2, §3

[7] = test system: C57BL/6 mice; experiment: In vivo model of respiratory distress: Penh by noninvasive plethysmography after intranasal LPS; set-up: species or system mouse
Procedure: as §7
The resistance of the respiratory tracts was evaluated by noninvasive plethysmography over a period of 3 hours after the application of LPS. Awake mice were placed in plethysmography chambers (EMKA Technologies, Paris, France). The increase in respiratory pause (Penh), as measurement of respiratory discomfort, was recorded and analyzed using the Datanalyst Software (EMKA Technologies, Paris, France), and expressed as mean±SEM of Penh of n=2-3 individual mice per group.
TNF is essential for LPS-induced acute respiratory dysfunction, as has been shown in TNF-deficient mice. In order to determine the potential in vivo activity of PIM1 (SFPIM135) and isoPIM1-2C16 (SFPIM91), they were tested for their inhibitory activity in a murine model of acute pulmonary inflammation and respiratory distress induced by intranasal application of LPS (1 μg/mouse).
C57BL/6 mice received an intranasal application of 1 μg of LPS, and Penh was recorded for 200 minutes using noninvasive plethysmography. […]

[8] = test system: C57BL/6 mice; experiment: Inflammatory cell recruitment in bronchoalveolar lavage after intranasal LPS; format: in vivo, mouse
Procedure: as §7, §8

[9] = test system: inflammatory cytokines and chemokines; experiment: Additional experiments: inflammatory cytokines and chemokines in lungs exposed to endotoxins; format: in vivo
[10] = test system: TNF; experiment: TNF in bronchoalveolar lavage fluid after intranasal LPS (ELISA); format: in vivo; details: coadministration 50 μg/mouse (FIG. 11)
Procedure: as §7, §8, §9

[11] = titrated at 1, 3, 10, 30 μg/ml (FIG. 15)

With CCCCCCCCCCCCCCCCCC(=O)OC[C@@H](COP(=O)(O)O[C@@H]1[C@@H](O[C@H]2O[C@H](CO)[C@@H](O)[C@H](O)[C@@H]2O)CNC[C@H]1O[C@H]1O[C@H](CO)[C@@H](O)[C@H](O)[C@@H]1O)OC(=O)CCCCCCCCCCCCCCC [PIM-2-mimNH] the “IL-12p40 secretion in response to LPS” value ([1]; 10 μg/ml (FIG. 17)) was “partially inhibit”, the TNF secretion [2, 11] was “inhibit less strongly” and the “cytotoxicity (MTT cell viability)” value ([3]; at the highest concentration (FIG. 16)) was “a certain cytotoxicity”.

CCCCCCCCCCCCCCCCCC(=O)OC[C@@H](COP(=O)(O)OC1C(O[C@H]2O[C@H](CO)[C@@H](O)[C@H](O)[C@@H]2O)CN(C(=O)C(F)(F)F)CC1O[C@H]1O[C@H](CO)[C@@H](O)[C@H](O)[C@@H]1O)OC(=O)CCCCCCCCCCCCCCC (stereo partly shown) [PIM-2-mimNCOCF3] was tested, and the “IL-12p40 secretion in response to LPS” value ([1]; 10 μg/ml (FIG. 17)) was “virtually abolished” and the TNF secretion [2, 11] was “strongly inhibit”.

In the case of “1-O-α-D-mannopyranosyl-2-O—[((S)-2,3-dipalmitoyloxy-propyl)phosphoryl]-D-myo-inositol [isoPIM1-2C16]”, the “secretion of KC in the bronchoalveolar space” value [4] is reported as “greatly reduced”, the “production of chemokine KC” value [5] is reported as “more strongly” and the “expression of IL-6 by the macrophages” value [6] is reported as “also inhibited”. For the same molecule, the “IL-12p40 secretion in response to LPS” value ([1]; 1 μg/ml (FIG. 6)) was “inhibition”, the “enhancement of Penh induced by LPS” value ([7]; 50 μg/mouse with LPS 1 μg/mouse, nasal instillation (FIG. 8)) was “even more pronounced” and the “pulmonary inflammation and resistance of the respiratory tracts in response to local endotoxins” value ([7]; summary of the in vivo experiments) was “marked inhibition”. The “number of inflammatory cells detected in the BAL” value ([8]; 18 hours after application of LPS, 50 μg/mouse intranasal (FIG. 9)) was “partially reduced”, the “reduction in the number of neutrophils” value ([8]; BAL, observed in 2 mice out of 3, 50 μg/mouse intranasal) was ≤ 70% and the “expression of several other inflammatory cytokines and chemokines in lungs exposed to endotoxins” value [9] was “decrease in expression”. The “TNF-α synthesis induced in LPS-stimulated macrophages” value ([2]; titrated at 1, 3 and 10 μg/ml (FIG. 3)) was “strongly inhibits”, the “release of TNF in the bronchoalveolar space” value [10] was “more strongly” and the “cytotoxicity (MTT)” value ([3]; titrated at 1, 3 and 10 μg/ml (FIG. 4)) was “absence of cytotoxicity”.

In the case of CCCCCCCCCCCCCCCCCC(=O)OC[C@H](COP(=O)(O)O[C@@H]1[C@H](O)[C@@H](O)[C@H](O)[C@@H](O)[C@@H]1OC1O[C@H](CO)[C@@H](O)[C@H](O)[C@@H]1O)OC(=O)CCCCCCCCCCCCCCC (stereo partly drawn) [isoPIM1-C16C18, 1-O-α-D-mannopyranosyl-2-O—[((S)-2-O-hexadecanoyl-3-O-octadecanoylpropyl)phosphoryl]-D-myo-inositol], the “IL-12p40 secretion in response to LPS” value ([1]; 1 μg/ml (FIG. 14)) is reported as “greatly inhibited”, the “IL-12p40 secretion in response to LPS” value ([1]; 10 μg/ml (FIG. 17)) is reported as “virtually abolished” and the TNF secretion ([2]; 1-10 μg/ml (FIG. 12)) is reported as “strongly inhibits”. The TNF secretion [2, 11] was “strongly inhibit” and the “cytotoxicity on macrophages (MTT)” value ([3]; titrated at 1, 3 and 10 μg/ml (FIG. 13)) was “lack of cytotoxicity”.
